For experiment [1], the target named is T1, MAGL (Mus musculus, UniProt O35678).
T1 construct: Proteomes (mouse brain membrane fraction or cell lysates); from tissue; host or cells: mouse brain membrane fraction (or cell lysates)
T1 sequence (O35678 1-303): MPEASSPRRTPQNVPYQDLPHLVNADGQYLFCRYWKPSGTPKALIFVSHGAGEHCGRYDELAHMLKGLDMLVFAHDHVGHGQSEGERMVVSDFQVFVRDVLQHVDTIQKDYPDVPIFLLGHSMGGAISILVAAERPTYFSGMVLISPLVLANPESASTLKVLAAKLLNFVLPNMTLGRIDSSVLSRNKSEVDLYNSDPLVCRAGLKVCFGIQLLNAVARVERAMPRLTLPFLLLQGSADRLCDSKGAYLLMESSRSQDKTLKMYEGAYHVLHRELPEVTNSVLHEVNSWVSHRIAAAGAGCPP
Put plainly: Mouse brain proteomes from inhibitor treated mice (oral gavage, sacrificed 4 h after administration). The conditions noted are these: read-out: MAGL % inh. 5 mg/kg. In kind it is in vivo. The method, boiled down: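 Wild-type C57Bl/6J mice got compound by oral gavage in polyethylene glycol vehicle. Brain proteomes were prepared 4 h after dosing and analyzed for serine hydrolase activity.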

For the next experiment, the target named is T2, FAAH (Mus musculus, UniProt O08914).
T2 construct: Proteomes (mouse brain membrane fraction or cell lysates); from tissue; host or cells: mouse brain membrane fraction (or cell lysates)
T2 sequence (O08914 1-579): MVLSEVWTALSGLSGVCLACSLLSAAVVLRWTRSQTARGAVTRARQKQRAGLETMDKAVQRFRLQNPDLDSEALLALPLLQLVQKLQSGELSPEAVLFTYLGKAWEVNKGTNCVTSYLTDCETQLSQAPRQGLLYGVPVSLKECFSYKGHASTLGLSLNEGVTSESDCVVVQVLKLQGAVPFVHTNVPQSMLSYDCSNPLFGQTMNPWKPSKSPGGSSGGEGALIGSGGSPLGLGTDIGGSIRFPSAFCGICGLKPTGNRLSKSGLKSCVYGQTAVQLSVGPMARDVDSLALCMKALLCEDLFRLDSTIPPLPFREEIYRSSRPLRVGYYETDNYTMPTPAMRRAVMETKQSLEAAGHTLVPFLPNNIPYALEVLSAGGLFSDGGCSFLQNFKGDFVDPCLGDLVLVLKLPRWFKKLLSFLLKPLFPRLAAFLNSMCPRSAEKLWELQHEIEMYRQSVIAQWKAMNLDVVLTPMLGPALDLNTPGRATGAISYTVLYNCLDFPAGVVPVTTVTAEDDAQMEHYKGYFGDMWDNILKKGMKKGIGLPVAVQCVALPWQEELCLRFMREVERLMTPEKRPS
Put plainly: In vitro competitive activity-based protein profiling (mouse), FAAH gel band. In kind it is biochemical. The conditions noted are these: for inhibition at 1 µM: read-out: FAAH % inh. 1 μM; for IC50: mouse. The method, boiled down:
(§1)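 Gel-based competitive ABPP: proteome 1.0 mg/mL, inhibitor 30 min 37 °C, then FP-Rh or HT-01 probe (stock 50 μM) 30 min 37 °C; SDS quench, SDS-PAGE, in-gel fluorescence of the enzyme band quantified.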

In experiment [2] the target is T1, MAGL. Put plainly: In vitro competitive activity-based protein profiling (mouse), MAGL gel band. In kind it is biochemical. The conditions noted are these: for inhibition at 1 µM: read-out: MAGL % inh. 1 μM; for IC50: mouse. A digest of the protocol: as §1
In experiment [3] the target is T3, MAGL (Homo sapiens, UniProt Q99685).
T3 construct: Proteomes (human prefrontal cortex or cell membrane fractions); from tissue; host or cells: human prefrontal cortex (or cell membrane fractions)
T3 sequence (Q99685 1-303): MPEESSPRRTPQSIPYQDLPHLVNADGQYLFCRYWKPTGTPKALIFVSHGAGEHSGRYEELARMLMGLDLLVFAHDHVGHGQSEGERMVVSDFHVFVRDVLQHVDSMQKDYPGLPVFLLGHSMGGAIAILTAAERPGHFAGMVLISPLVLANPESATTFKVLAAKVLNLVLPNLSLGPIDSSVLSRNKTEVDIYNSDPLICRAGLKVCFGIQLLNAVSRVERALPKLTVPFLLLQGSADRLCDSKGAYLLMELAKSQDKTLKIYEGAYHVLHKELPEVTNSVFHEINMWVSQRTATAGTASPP
As to the kind of experiment: In vitro competitive activity-based protein profiling (human), MAGL gel band. In kind it is biochemical. The method, boiled down: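 Human prefrontal cortex or cell membrane proteomes (1.0-2.0 mg/mL protein) preincubated with inhibitors 30 min at 37° C, then labelled with FP-Rh or JW912 probe 30 min at room temperature. Residual MAGL activity read as fluorescent gel-band intensity after SDS-PAGE.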

Bounds are passed on as bounds.

In patent US10519134B2, “Pyrazole compounds and methods of making and using same” (Lundbeck La Jolla Research Center, Inc., priority 2015, dated 2019) one finds inhibition and IC50 data, which are given here for 15 compounds.

A word on the IC50: it is the concentration that inhibits the measured activity by half. Higher therefore signals weaker potency in that assay. Regarding `CC(=O)Nc1ccn(C(=O)N2CCC3(CCCN3Cc3ccc(Cl)c(C4CC4)c3)CC2)n1` [Example 111, N-(1-(1-(4-chloro-3-cyclopropylbenzyl)-1,8-diazaspiro[4.5]decane-8-carbonyl)-1H-pyrazol-3-yl)acetamide], at MAGL [1], the inhibition at 5 mg/kg is 0 to 25%. Besides, the inhibition at 1 µM at FAAH was 0 to 25%; on MAGL [2], at least 75%. The IC50 at MAGL [3] is at most 100 nM.

Turning to `CS(=O)(=O)Nc1ccn(C(=O)N2CCN(Cc3ccc(C(F)(F)F)cc3-c3nncs3)CC2)n1` [Example 114, N-(1-(4-(2-(1,3,4-thiadiazol-2-yl)-4-(trifluoromethyl)benzyl)piperazine-1-carbonyl)-1H-pyrazol-3-yl)methanesulfonamide], on MAGL [1], the inhibition at 5 mg/kg was in the range of 0 to 25%. Also, the inhibition at 1 µM on FAAH was 0 to 25%; on MAGL [2], at least 75%. The IC50 on MAGL [3] is at most 100 nM.

`CS(=O)(=O)Nc1ccn(C(=O)N2CCN(Cc3cc(Cl)ccc3N3CCOCC3)CC2)n1` [Example 123, N-(1-(4-(5-chloro-2-morpholinobenzyl)piperazine-1-carbonyl)-1H-pyrazol-3-yl) methanesulfonamide]: the inhibition at 5 mg/kg at MAGL [1] was 25 to 50%. Moreover, the IC50 was 1000 to 10000 nM at FAAH, 100 to 1000 nM at MAGL [2] and at most 100 nM on MAGL [3]. Also, the inhibition at 1 µM on FAAH is 0 to 25%; at MAGL [2], at least 75%.

As to `CS(=O)(=O)Nc1ccn(C(=O)N2CCC3(CCCN3Cc3ccc(C(F)(F)F)cc3N3CCCC3)CC2)n1` [Example 125, N-(1-(1-(2-(pyrrolidin-1-yl)-4-(trifluoromethyl)benzyl)-1,8-diazaspiro[4.5]decane-8-carbonyl)-1H-pyrazol-3-yl) methanesulfonamide], the inhibition at 5 mg/kg on MAGL [1] lay within 0 to 25%. Besides, the IC50 on FAAH was 1000 to 10000 nM; at MAGL [2], at most 100 nM; at MAGL [3], at most 100 nM. Moreover, the inhibition at 1 µM is 0 to 25% on FAAH and at least 75% on MAGL [2].

Turning to `CS(=O)(=O)Nc1ccn(C(=O)N2CCC3(CCCN3Cc3ccc(C(F)(F)F)cc3N3C[C@H]4CC[C@@H](C3)O4)CC2)n1` [Example 136, N-(1-(1-(2-((1R,5S)-8-oxa-3-azabicyclo[3.2.1]octan-3-yl)-4-(trifluoromethyl)benzyl)-1,8-diazaspiro[4.5]decane-8-carbonyl)-1H-pyrazol-3-yl) methanesulfonamide], the inhibition at 5 mg/kg on MAGL [1] is 0 to 25%. The results for the IC50 at FAAH, on MAGL [2] and at MAGL [3] were 1000 to 10000 nM, 100 to 1000 nM and at most 100 nM, respectively. The inhibition at 1 µM on FAAH is 0 to 25%; on MAGL [2] it was at least 75%.

For `CS(=O)(=O)Nc1ccn(C(=O)N2CCN(Cc3ccc(N4CCCC4)c(C(F)(F)F)c3)CC2)n1` [Example 152, N-(1-(4-(4-(pyrrolidin-1-yl)-3-(trifluoromethyl)benzyl)piperazine-1-carbonyl)-1H-pyrazol-3-yl) methanesulfonamide], the inhibition at 5 mg/kg on MAGL [1] is at least 75%. In addition, the IC50 was 1000 to 10000 nM on FAAH, at most 100 nM on MAGL [2] and at most 100 nM on MAGL [3]. Also, the inhibition at 1 µM is 0 to 25% at FAAH and at least 75% on MAGL [2].

As for `CS(=O)(=O)Nc1ccn(C(=O)N2CCN(Cc3cc(N4CCCC4)cc(C(F)(F)F)c3)CC2)n1` [Example 156, N-(1-(4-(3-(pyrrolidin-1-yl)-5-(trifluoromethyl)benzyl)piperazine-1-carbonyl)-1H-pyrazol-3-yl) methanesulfonamide], the inhibition at 5 mg/kg at MAGL [1] was at least 75%. Further, the IC50 at FAAH is 1000 to 10000 nM; on MAGL [2], at most 100 nM; on MAGL [3], at most 100 nM. Besides, the inhibition at 1 µM is 0 to 25% on FAAH and at least 75% on MAGL [2].

Regarding `CS(=O)(=O)Nc1ccn(C(=O)N2CCN(Cc3ccc(Cl)c(N4CCCC4)c3)CC2)n1` [Example 165, N-(1-(4-(4-chloro-3-(pyrrolidin-1-yl)benzyl)piperazine-1-carbonyl)-1H-pyrazol-3-yl) methanesulfonamide], the inhibition at 5 mg/kg on MAGL [1] is at least 75%. In addition, the inhibition at 1 µM was 0 to 25% at FAAH and at least 75% on MAGL [2]. At MAGL [3], this compound had an IC50 of at most 100 nM.

On to `CS(=O)(=O)Nc1ccn(C(=O)N2CCN(Cc3ccc(C(F)(F)F)cc3N3CCC3)CC2)n1` [Example 175, N-(1-(4-(2-(azetidin-1-yl)-4-(trifluoromethyl)benzyl)piperazine-1-carbonyl)-1H-pyrazol-3-yl) methanesulfonamide], for which the inhibition at 5 mg/kg on MAGL [1] is at least 75%. Besides, the inhibition at 1 µM on FAAH is 0 to 25%; at MAGL [2], at least 75%. On MAGL [3], this compound yielded an IC50 of at most 100 nM.

On to `CS(=O)(=O)Nc1ccn(C(=O)N2CCN(Cc3ccc(C(F)(F)F)cc3N3CCC(C(=O)O)CC3)CC2)n1` [Example 186, 1-(2-((4-(3-(methylsulfonamido)-1H-pyrazole-1-carbonyl)piperazin-1-yl)methyl)-5-(trifluoromethyl)phenyl)piperidine-4-carboxylic acid], for which the inhibition at 5 mg/kg at MAGL [1] lay in the range of 0 to 25%. Moreover, the IC50 at FAAH fell in the range of 1000 to 10000 nM; on MAGL [2], 100 to 1000 nM; on MAGL [3], 100 to 1000 nM. For the same compound, the results for the inhibition at 1 µM at FAAH and at MAGL [2] were 0 to 25% and at least 75%, respectively.

As for `CS(=O)(=O)Nc1ccn(C(=O)N2CCN(Cc3ccc(C(F)(F)F)cc3N3CCCC3)CC2)n1` [Example 188, N-(1-(4-(2-(pyrrolidin-1-yl)-4-(trifluoromethyl)benzyl)piperazine-1-carbonyl)-1H-pyrazol-3-yl) methanesulfonamide], the inhibition at 5 mg/kg on MAGL [1] was at least 75%. Also, the values for the IC50 on FAAH, at MAGL [2] and on MAGL [3] were 1000 to 10000 nM, at most 100 nM and at most 100 nM, respectively. Moreover, the values for the inhibition at 1 µM on FAAH and on MAGL [2] were 0 to 25% and at least 75%, respectively.

With `CS(=O)(=O)Nc1ccn(C(=O)N2CCC3(CCCN3Cc3ccc(C(F)(F)F)cc3N3CC4COCC4C3)CC2)n1` (centres unmarked) [Example 199, N-(1-(1-(2-(tetrahydro-1H-furo[3,4-c]pyrrol-5(3H)-yl)-4-(trifluoromethyl)benzyl)-1,8-diazaspiro[4.5]decane-8-carbonyl)-1H-pyrazol-3-yl) methanesulfonamide], at MAGL [1], the inhibition at 5 mg/kg was 25 to 50%. Moreover, the results for the inhibition at 1 µM at FAAH and on MAGL [2] were 0 to 25% and at least 75%, respectively. Also, the IC50 at MAGL [3] is at most 100 nM.

Consider `CC1CCCN1c1cc(CN2CCN(C(=O)n3ccc(NS(C)(=O)=O)n3)CC2)ccc1Cl` (centres unmarked) [Example 200, N-(1-(4-(4-chloro-3-(2-methylpyrrolidin-1-yl)benzyl)piperazine-1-carbonyl)-1H-pyrazol-3-yl) methanesulfonamide], for which, at MAGL [1], the inhibition at 5 mg/kg is at least 75%. For the same compound, the inhibition at 1 µM is 0 to 25% on FAAH and at least 75% on MAGL [2]. Moreover, the IC50 on MAGL [3] was at most 100 nM.

`CS(=O)(=O)Nc1ccn(C(=O)N2CCN(Cc3ccc(Cl)c(N4CCC(F)CC4)c3)CC2)n1` [Example 201, N-(1-(4-(4-chloro-3-(4-fluoropiperidin-1-yl)benzyl)piperazine-1-carbonyl)-1H-pyrazol-3-yl) methanesulfonamide]: at MAGL [1], the inhibition at 5 mg/kg is at least 75%. For the same compound, the values for the inhibition at 1 µM at FAAH and on MAGL [2] were 0 to 25% and at least 75%, respectively. The IC50 at MAGL [3] was at most 100 nM.

On to `CS(=O)(=O)Nc1ccn(C(=O)N2CCN(Cc3ccc(Cl)c(N4CCN(C5CC5)CC4)c3)CC2)n1` [Example 202, N-(1-(4-(4-chloro-3-(4-cyclopropylpiperazin-1-yl)benzyl)piperazine-1-carbonyl)-1H-pyrazol-3-yl) methanesulfonamide], for which, on MAGL [1], the inhibition at 5 mg/kg was in the range of 0 to 25%. Also, the figures for the inhibition at 1 µM on FAAH and on MAGL [2] were 0 to 25% and at least 75%, respectively. At MAGL [3], this compound came in with an IC50 of at most 100 nM.
